From ChEMBL document CHEMBL1201862, “PubChem BioAssay data set” (2004)
Several values for one entry are separate records, joined by “and”; a condition that tells them apart may be missing. Equal values may be shown once.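 Where inhibition never reached the appropriate level, the endpoint shown equals the highest concentration tested. Otherwise, values were interpolated linearly from a five-concentration, 48-hour dose response in 96-well plates. GI50 is the concentration that inhibits growth by half.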 Activity calls are given as the source filed them. Cut-off read from the data, not from the text of the source: active = GI50 up to about 1.1 µM and inactive = higher.

Key:
Assay in all cases: NCI-60 cell line screen, 48 h
[1] = tested on: SK-OV-3
[2] = tested on: SF-295
[3] = tested on: RXF 393
[4] = tested on: SF-268
[5] = tested on: SW-620
[6] = tested on: LXFL 529
[7] = tested on: CCRF-CEM
[8] = tested on: Hs-578T
[9] = tested on: HCT-15
[10] = tested on: SK-MEL-5
[11] = tested on: OVCAR-5
[12] = tested on: OVCAR-8
[13] = tested on: CAKI-1
[14] = tested on: 786-0
[15] = tested on: UACC-62
[16] = tested on: SN12C
[17] = tested on: HT-29
[18] = tested on: MCF7
[19] = tested on: A549
[20] = tested on: MOLT-4

Row | SMILES | GI50 [1] | GI50 [2] | GI50 [3] | GI50 [4] | GI50 [5] | GI50 [6] | GI50 [7] | GI50 [8] | GI50 [9] | GI50 [10] | GI50 [11] | GI50 [12] | GI50 [13] | GI50 [14] | GI50 [15] | GI50 [16] | GI50 [17] | GI50 [18] | GI50 [19] | GI50 [20]
1 | COc1cc2c(cc1O)CCN[C@@]21CS[C@H]2c3c(OC(C)=O)c(C)c4c(c3C(COC1=O)N1C2C2c3c(cc(C)c(OC)c3O)CC([C@@H]1O)N2C)OCO4 (some centres not stated) | 0.0001 µM (active) | < 0.0001 µM (active) | < 0.0001 µM (active) | < 0.0001 µM (active) | < 0.0001 µM (active) | < 1e-06 µM (active) | < 0.0001 µM (active) | < 0.0001 µM (active) | 0.0001 µM | < 0.0001 µM (active) | 0.0001 µM (active) | < 0.0001 µM (active) | < 0.0001 µM (active) | 0.0001 µM (active) | < 0.0001 µM (active) | < 0.0001 µM (active) | 0.00128 µM (active) | < 0.0001 µM (active) | < 0.0001 µM (active) | < 0.0001 µM (active)
2 | CC1(C)CC(=O)C(C(=O)Nc2cccs2)=C(O)C1 | 62.4 µM (inactive) | 28.9 µM (inactive) | 29.9 µM (inactive) | > 100 µM (inactive) | 38.8 µM (inactive) | 31.8 µM (inactive) | 23 µM (inactive) |  | 33.9 µM | 40.6 µM (inactive) | 44 µM (inactive) | 34.8 µM (inactive) | 14.6 µM (inactive) | 49.9 µM (inactive) | 29.2 µM (inactive) | 39.4 µM (inactive) | 49.1 µM (inactive) |  | 32.1 µM (inactive) | 28 µM (inactive)
3 | COc1ccc(/C=C2\CCC(Cc3ccccc3)(CN(C)C)C2=O)cc1 (configuration not stated) | > 100 µM (inactive) | > 83.2 µM (inactive) | 35.1 µM (inactive) | 69.5 µM (inactive) | 26.7 µM (inactive) | 36.1 µM (inactive) | 27.9 µM (inactive) | > 91.2 µM (inactive) | 26.7 µM | 20.8 µM (inactive) | > 96.2 µM (inactive) | 41.6 µM (inactive) | 48 µM (inactive) | 41.7 µM (inactive) | 36.9 µM (inactive) | 61.2 µM (inactive) | 32.9 µM (inactive) | 41.8 µM (inactive) | 50.5 µM (inactive) | 25 µM (inactive)
4 | Nc1ncnc2c1ncn2C1CC(O)C(CO)O1 (configuration not stated) | > 100 µM (inactive) | > 100 µM (inactive) | > 100 µM (inactive) | > 100 µM (inactive) | > 100 µM (inactive) | > 100 µM (inactive) | > 100 µM (inactive) and 70.5 µM (inactive) |  | > 100 µM | > 100 µM (inactive) | > 100 µM (inactive) | > 100 µM (inactive) | > 100 µM (inactive) | > 100 µM (inactive) | > 100 µM (inactive) | > 100 µM (inactive) | > 100 µM (inactive) | > 100 µM (inactive) | > 100 µM (inactive) | > 100 µM (inactive)
